Like-named read-outs stand apart in the source and are kept apart here.
Tests used:
[1] = tested on: Calu-6; experiment: Cell proliferation-inhibiting activity (ATP in viable cells, CellTiter-Glo), Calu-6; assay type: cell-based, human; conditions: Calu-6, 96 h, read-out: Calu-6 IC50
[2] = tested on: NCI-H2122; experiment: Cell proliferation-inhibiting activity (ATP in viable cells, CellTiter-Glo), NCI-H2122; assay type: cell-based, human; conditions: NCI-H2122, 96 h, read-out: NCI-H2122 IC50
[3] = molecular target: T1, BRAF (Homo sapiens, UniProt P15056); experiment: BRAF-inhibiting activity, time-resolved fluorescence-fluorescence resonance energy transfer assay; assay type: biochemical
T1 construct: purchased Eurofins Genomics KK; (BRAF); Thermo Fisher Scientific Inc. (MEK1)
Description: The BRAF-inhibiting activity of the compounds listed in Table 3 below was evaluated by the time-resolved fluorescence-fluorescence resonance energy transfer assay as described below.

[4] = Human liver microsome stability; assay type: in vitro ADME; conditions: human liver microsomes, pH 7.4
[5] = tested on: A549; experiment: Cell proliferation-inhibiting activity (ATP in viable cells, CellTiter-Glo), A549; assay type: cell-based, human; conditions: A549, 96 h, read-out: A549 IC50
[6] = molecular target: T2, MEK1 (Homo sapiens, UniProt Q02750); experiment: MEK1-inhibiting activity, fluorescent polarization method (CRAF/MEK1/ERK2 cascade, IMAP); assay type: biochemical; conditions: Table 3; read-out: MEK1 IC50
T2 construct: purchased Thermo Fisher Scientific Inc. (MEK1, CRAF); Carna Biosciences, Inc. (ERK2)
Description: The MEK1-inhibiting activity of the compounds listed in Table 3 below were evaluated by the fluorescent polarization method as described below.

[7] = human lung cancer cells, 4 days

T1 sequence (P15056 417-766 limits assumed): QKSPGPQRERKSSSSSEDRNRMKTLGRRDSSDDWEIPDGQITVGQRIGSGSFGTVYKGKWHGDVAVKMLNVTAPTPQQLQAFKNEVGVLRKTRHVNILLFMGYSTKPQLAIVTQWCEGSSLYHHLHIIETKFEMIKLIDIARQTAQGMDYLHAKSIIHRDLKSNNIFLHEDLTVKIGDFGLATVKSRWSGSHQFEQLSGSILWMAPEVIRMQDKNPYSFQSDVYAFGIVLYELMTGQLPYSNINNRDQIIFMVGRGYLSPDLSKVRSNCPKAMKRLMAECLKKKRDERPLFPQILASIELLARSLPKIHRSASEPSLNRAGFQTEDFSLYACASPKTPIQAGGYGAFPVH
T2 sequence (Q02750 whole entry): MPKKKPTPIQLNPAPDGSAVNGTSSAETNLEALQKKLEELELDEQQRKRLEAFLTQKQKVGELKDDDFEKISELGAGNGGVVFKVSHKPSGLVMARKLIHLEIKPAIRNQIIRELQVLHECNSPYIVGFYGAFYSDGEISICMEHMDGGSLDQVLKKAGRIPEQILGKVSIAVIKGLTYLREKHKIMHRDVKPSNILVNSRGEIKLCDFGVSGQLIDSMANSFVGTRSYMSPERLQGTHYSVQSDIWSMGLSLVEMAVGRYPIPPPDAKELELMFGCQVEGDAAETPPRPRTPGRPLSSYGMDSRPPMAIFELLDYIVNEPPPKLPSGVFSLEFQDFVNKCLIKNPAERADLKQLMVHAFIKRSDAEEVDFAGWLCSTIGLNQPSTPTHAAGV

CNS(=O)(=O)Nc1nccc(Cc2cc(C(N)=O)c(Nc3ccc(I)cc3F)cc2F)c1F [Compound I-1, 4-fluoro-2-(2-fluoro-4-iodoanilino)-5-[[3-fluoro-2-(methylsulfamoylamino)pyridin-4-yl]methyl]benzamide]
IC50 [1, 7]: 15 nM
IC50 [2, 7]: 3 nM
IC50 ([3]; read-out: BRAF IC50; Table 3): 3 nM
microsomal CLint at 0.99 µM [4]: 19 µL/min/mg
IC50 [5, 7]: 5 nM
IC50 [6]: 25 nM

CNS(=O)(=O)Nc1nccc(Cc2cc(C(N)=O)c(Nc3ccc(I)cc3F)n(C)c2=O)c1F [Compound J-1, 2-(2-fluoro-4-iodoanilino)-5-[[3-fluoro-2-(methylsulfamoylamino)pyridin-4-yl]methyl]-1-methyl-6-oxopyridine-3-carboxamide]
IC50 [1, 7]: 29 nM
IC50 [2, 7]: 8 nM
IC50 ([3]; read-out: BRAF IC50; Table 3): 4 nM
microsomal CLint at 0.99 µM [4]: 11 µL/min/mg
IC50 [5, 7]: 38 nM
IC50 [6]: 58 nM

Cn1c(Nc2ccc(C3CC3)cc2F)c(C(N)=O)cc(Cc2ccnc(NS(=O)(=O)NC3CC3)c2F)c1=O [Compound J-4, 2-(4-Cyclopropyl-2-fluoroanilino)-5-[[2-(cyclopropylsulfamoylamino)-3-fluoropyridin-4-yl]methyl]-1-methyl-6-oxopyridine-3-carboxamide]
IC50 ([1]; Homo sapiens): > 2000 nM
IC50 ([2]; Homo sapiens): 1060 nM
IC50 ([3]; Table 3; read-out: BRAF IC50): 14 nM
microsomal CLint at 0.99 µM [4]: 67 µL/min/mg
IC50 ([5]; Homo sapiens): > 2000 nM
IC50 [6]: 877 nM

CNS(=O)(=O)Nc1nccc(Cc2cc(C(=O)NC3CC3)c(Nc3ccc(I)cc3F)n(C)c2=O)c1F [Compound J-5, N-cyclopropyl-2-(2-fluoro-4-iodoanilino)-5-[[3-fluoro-2-(methylsulfamoylamino)pyridin-4-yl]methyl]-1-methyl-6-oxopyridine-3-carbo xamide]
IC50 [1, 7]: 29 nM
IC50 [2, 7]: 4 nM
IC50 ([3]; read-out: BRAF IC50; Table 3): 8 nM
microsomal CLint at 0.99 µM [4]: 20 µL/min/mg
IC50 [5, 7]: 7 nM
IC50 [6]: 117 nM

Cn1c(Nc2ccc(I)cc2F)c(C(=O)NC2CC2)cc(Cc2ccnc(NS(=O)(=O)NC3CC3)c2F)c1=O [Compound J-6, N-Cyclopropyl-5-[[2-(cyclopropylsulfamoylamino)-3-fluoropyridin-4-yl]methyl]-2-(2-fluoro-4-iodoanilino)-1-methyl-6-oxopyridine-3-carboxamide]
IC50 [1, 7]: 27 nM
IC50 [2, 7]: 7 nM
IC50 ([3]; read-out: BRAF IC50; Table 3): 7 nM
microsomal CLint at 0.99 µM [4]: 45 µL/min/mg
IC50 [5, 7]: 14 nM
IC50 [6]: 86 nM

CNS(=O)(=O)Nc1nccc(Cc2cc(C(=O)NOC)c(Nc3ccc(I)cc3F)n(C)c2=O)c1F [Compound J-8, 2-(2-fluoro-4-iodoanilino)-5-[[3-fluoro-2-(methylsulfamoylamino)pyridin-4-yl]methyl]-N-methoxy-1-methyl-6-oxopyridine-3-carboxamide]
IC50 [1, 7]: 77 nM
IC50 [2, 7]: 5 nM
IC50 ([3]; read-out: BRAF IC50; Table 3): 2 nM
microsomal CLint at 0.99 µM [4]: 3 µL/min/mg
IC50 [5, 7]: 24 nM
IC50 [6]: 15 nM

CNS(=O)(=O)Nc1nccc(Cc2cc(C(=O)NOC(C)(C)C)c(Nc3ccc(I)cc3F)n(C)c2=O)c1F [Compound J-10, 2-(2-fluoro-4-iodoanilino)-5-[[3-fluoro-2-(methylsulfamoylamino)pyridin-4-yl]methyl]-1-methyl-N-[(2-methylpropan-2-yl)oxy]-6-oxop yridine-3-carboxamide]
IC50 [1, 7]: 13 nM
IC50 [2, 7]: 2 nM
IC50 ([3]; read-out: BRAF IC50; Table 3): 10 nM
microsomal CLint at 0.99 µM [4]: 28 µL/min/mg
IC50 [5, 7]: 8 nM
IC50 [6]: 42 nM

Cn1c(Nc2ccc(I)cc2F)c(C(=O)NOC(C)(C)C)cc(Cc2ccnc(NS(=O)(=O)NC3CC3)c2F)c1=O [Compound J-11, 5-[[2-(Cyclopropylsulfamoylamino)-3-fluoropyridin-4-yl]methyl]-2-(2-fluoro-4-iodoanilino)-1-methyl-N-[(2-methylpropan-2-yl)oxy]-6-oxopyr idine-3-carboxamide]
IC50 [1, 7]: 27 nM
IC50 [2, 7]: 6 nM
IC50 ([3]; read-out: BRAF IC50; Table 3): 17 nM
microsomal CLint at 0.99 µM [4]: 47 µL/min/mg
IC50 [5, 7]: 13 nM
IC50 [6]: 48 nM

CNS(=O)(=O)Nc1cccc(Cc2cc(C(N)=O)c(Nc3ccc(I)cc3F)n(C)c2=O)c1F [Compound K-1, 2-(2-Fluoro-4-iodoanilino)-5-[[2-fluoro-3-(methylsulfamoylamino)phenyl]methyl]-1-methyl-6-oxopyridine-3-carboxamide]
IC50 [1, 7]: 14 nM
IC50 [2, 7]: 4 nM
IC50 ([3]; read-out: BRAF IC50; Table 3): 3 nM
microsomal CLint at 0.99 µM [4]: 97 µL/min/mg
IC50 [5, 7]: 3 nM
IC50 [6]: 55 nM

CCNS(=O)(=O)Nc1cccc(Cc2cc(C(N)=O)c(Nc3ccc(I)cc3F)n(C)c2=O)c1F [Compound K-2, 5-[13-(Ethylsulfamoylamino)-2-fluorophenyl|methyl]-2-(2-fluoro-4-iodoanilino)-1-methyl-6-oxopyridine-3-carboxamide]
IC50 [1, 7]: 27 nM
IC50 [2, 7]: 6 nM
IC50 ([3]; read-out: BRAF IC50; Table 3): 4 nM
microsomal CLint at 0.99 µM [4]: 234 µL/min/mg
IC50 [5, 7]: 6 nM
IC50 [6]: 73 nM

Cn1c(Nc2ccc(I)cc2F)c(C(N)=O)cc(Cc2cccc(NS(=O)(=O)NC3CC3)c2F)c1=O [Compound K-3, 5-[[3-(Cyclopropylsulfamoylamino)-2-fluorophenyl]methyl]-2-(2-fluor o-4-iodoanilino)-1-methyl-6-oxopyridine-3-carboxamide]
IC50 [1, 7]: 31 nM
IC50 [2, 7]: 10 nM
IC50 ([3]; read-out: BRAF IC50; Table 3): 5 nM
microsomal CLint at 0.99 µM [4]: 247 µL/min/mg
IC50 [5, 7]: 9 nM
IC50 [6]: 84 nM

CNS(=O)(=O)Nc1cccc(Cc2cc(C(=O)NC3CC3)c(Nc3ccc(I)cc3F)n(C)c2=O)c1F [Compound K-4, N-Cyclopropyl-2-(2-fluoro-4-iodoanilino)-5-[[2-fluoro-3-(methylsulfamoylamino)phenyl]methyl]-1-methyl-6-oxopyridine-3-carboxamide]
IC50 [1, 7]: 25 nM
IC50 [2, 7]: 5 nM
IC50 ([3]; read-out: BRAF IC50; Table 3): 11 nM
microsomal CLint at 0.99 µM [4]: 129 µL/min/mg
IC50 [5, 7]: 6 nM
IC50 [6]: 106 nM

Cn1c(Nc2ccc(I)cc2F)c(C(=O)NC2CC2)cc(Cc2cccc(NS(=O)(=O)NC3CC3)c2F)c1=O [Compound K-5, N-Cyclopropyl-5-[[3-(cyclopropylsulfamoylamino)-2-fluorophenyl]methyl]-2-(2-fluoro-4-iodoanilino)-1-methyl-6-oxopyridine-3-carboxamide]
IC50 [1, 7]: 110 nM
IC50 [2, 7]: 23 nM
IC50 ([3]; read-out: BRAF IC50; Table 3): 9 nM
microsomal CLint at 0.99 µM [4]: 245 µL/min/mg
IC50 [5, 7]: 25 nM
IC50 [6]: 139 nM

Cn1c(Nc2ccc(I)cc2F)c(C(N)=O)cc(Cc2cccc(NS(=O)(=O)C3(C)CC3)c2F)c1=O [Compound K-6, 2-(2-Fluoro-4-iodoanilino)-5-[[2-fluoro-3-[(1-methylcyclopropyl)sulfonylamino]phenyl]methyl]-1-methyl-6-oxopyridine-3-carboxamide]
IC50 [1, 7]: 83 nM
IC50 [2, 7]: 21 nM
IC50 ([3]; read-out: BRAF IC50; Table 3): 15 nM
microsomal CLint at 0.99 µM [4]: 499 µL/min/mg
IC50 [5, 7]: 25 nM
IC50 [6]: 227 nM

CONC(=O)c1cc(Cc2cccc(NS(=O)(=O)C3(C)CC3)c2F)c(=O)n(C)c1Nc1ccc(I)cc1F [Compound K-7, 2-(2-Fluoro-4-iodoanilino)-5-[[2-fluoro-3-[(1-methylcyclopropyl)sulfonylamino]phenyl]methyl]-N-methoxy-1-methyl-6-oxopyridine-3-carboxamide]
IC50 [1, 7]: 27 nM
IC50 [2, 7]: 7 nM
IC50 ([3]; read-out: BRAF IC50; Table 3): 14 nM
microsomal CLint at 0.99 µM [4]: 357 µL/min/mg
IC50 [5, 7]: 9 nM
IC50 [6]: 31 nM

CCS(=O)(=O)Nc1cccc(Cc2cc(C(N)=O)c(Nc3ccc(I)cc3F)n(C)c2=O)c1F [Compound K-10, 5-[[3-(Ethylsulfonylamino)-2-fluorophenyl]methyl]-2-(2-fluoro-4-iodoanilino)-1-methyl-6-oxopyridine-3-carboxamide]
IC50 [1, 7]: 81 nM
IC50 [2, 7]: 16 nM
IC50 ([3]; read-out: BRAF IC50; Table 3): 8 nM
microsomal CLint at 0.99 µM [4]: 69 µL/min/mg
IC50 [5, 7]: 25 nM
IC50 [6]: 128 nM

Cn1c(Nc2ccc(I)cc2F)c(C(=O)NC2CC2)cc(Cc2cccc(NS(=O)(=O)C3(C)CC3)c2F)c1=O [Compound K-11, N-Cyclopropyl-2-(2-fluoro-4-iodoanilino)-5-[[2-fluoro-3-[(1-methylcyclopropyl)sulfonylamino]phenyl]methyl]-I-methyl-6-oxopyridine-3-carb oxamide]
IC50 [1, 7]: 230 nM
IC50 [2, 7]: 85 nM
IC50 ([3]; read-out: BRAF IC50; Table 3): 15 nM
microsomal CLint at 0.99 µM [4]: 437 µL/min/mg
IC50 [5, 7]: 93 nM
IC50 [6]: 278 nM

Cn1c(Nc2ccc(I)cc2F)c(C(=O)NOC(C)(C)C)cc(Cc2cccc(NS(=O)(=O)C3(C)CC3)c2F)c1=O [Compound K-12, 2-(2-Fluoro-4-iodoanilino)-5-[2-fluoro-3-[(1-methylcyclopropyl)sulfonylamino]phenyl]methyl]-1-methyl-N-[(2-methylpropan-2-yl)oxyl-6-oxo pyridine-3-carboxamide]
IC50 [1, 7]: 27 nM
IC50 [2, 7]: 6 nM
IC50 ([3]; read-out: BRAF IC50; Table 3): 14 nM
microsomal CLint at 0.99 µM [4]: 546 µL/min/mg
IC50 [5, 7]: 7 nM
IC50 [6]: 10 nM

CCNS(=O)(=O)Nc1cccc(Cc2cc(C(=O)NC3CC3)c(Nc3ccc(I)cc3F)n(C)c2=O)c1F [Compound K-13, N-Cyclopropyl-5-[[3-(ethylsulfamoylamino)-2-fluorophenyl]methyl]-2-(2-fluoro-4-iodoanilino)-1-methyl-6-oxopyridine-3-carboxamide]
IC50 [1, 7]: 53 nM
IC50 [2, 7]: 13 nM
IC50 ([3]; read-out: BRAF IC50; Table 3): 9 nM
microsomal CLint at 0.99 µM [4]: 321 µL/min/mg
IC50 [5, 7]: 18 nM
IC50 [6]: 115 nM

Source: patent EP4725941A1, “ARYLAMIDE DERIVATIVE HAVING ANTITUMOR ACTIVITY” (priority 2020, dated 2021)
